Experimental data taken from the NIST ThermoML archive (doi:10.1021/je060457+).

Assay: xn = mol fraction of the nth substance listed
Details: 101 kPa, Liquid; for viscosity: Capillary tube (Ostwald / Ubbelohde) method; for mass density: Vibrating tube method

CNCCO [2-(methylamino)ethanol] + O
Details	mass density [kg/m3]	viscosity [mPa·s]
298.15 K, x1 = 0.0493	–	1.801
298.15 K, x1 = 0.0499	996.45	–
298.15 K, x1 = 0.0657	996.78	2.258
298.15 K, x1 = 0.1054	997.9	3.804
298.15 K, x1 = 0.1987	996.03	8.788
298.15 K, x1 = 0.2946	–	13.51
298.15 K, x1 = 0.301	988.25	–
298.15 K, x1 = 0.3834	980.24	–
298.15 K, x1 = 0.388	–	18.21
298.15 K, x1 = 0.5041	968.81	19.98
298.15 K, x1 = 0.6	960.3	19.11
298.15 K, x1 = 0.6974	953.64	–
298.15 K, x1 = 0.7003	–	17.02
298.15 K, x1 = 0.8009	946.63	–
298.15 K, x1 = 0.8019	–	14.38
298.15 K, x1 = 0.898	–	12.46
298.15 K, x1 = 0.9031	940.86	–
298.15 K, x1 = 1	936.18	10.51
303.15 K, x1 = 0.0493	–	1.556
303.15 K, x1 = 0.0499	994.49	–
303.15 K, x1 = 0.0657	994.58	1.927
303.15 K, x1 = 0.1054	995.16	3.169
303.15 K, x1 = 0.1987	992.48	6.987
303.15 K, x1 = 0.2946	–	10.53
303.15 K, x1 = 0.301	984.47	–
303.15 K, x1 = 0.3834	976.43	–
303.15 K, x1 = 0.388	–	14.11
303.15 K, x1 = 0.5041	965	15.44
303.15 K, x1 = 0.6	956.5	15.05
303.15 K, x1 = 0.6974	949.81	–
303.15 K, x1 = 0.7003	–	13.42
303.15 K, x1 = 0.8009	942.76	–
303.15 K, x1 = 0.8019	–	11.43
303.15 K, x1 = 0.898	–	10
303.15 K, x1 = 0.9031	936.96	–
303.15 K, x1 = 1	932.26	8.522
313.15 K, x1 = 0.0493	–	1.195
313.15 K, x1 = 0.0499	990.11	–
313.15 K, x1 = 0.0657	989.79	1.45
313.15 K, x1 = 0.1054	989.39	2.272
313.15 K, x1 = 0.1987	985.28	4.622
313.15 K, x1 = 0.2946	–	6.748
313.15 K, x1 = 0.301	976.815	–
313.15 K, x1 = 0.3834	968.73	–
313.15 K, x1 = 0.388	–	8.852
313.15 K, x1 = 0.5041	957.32	9.719
313.15 K, x1 = 0.6	948.83	9.424
313.15 K, x1 = 0.6974	942.12	–
313.15 K, x1 = 0.7003	–	8.652
313.15 K, x1 = 0.8009	935.01	–
313.15 K, x1 = 0.8019	–	7.547
313.15 K, x1 = 0.898	–	6.716
313.15 K, x1 = 0.9031	929.16	–
313.15 K, x1 = 1	924.42	5.833
323.15 K, x1 = 0.0493	–	0.9978
323.15 K, x1 = 0.0499	985.07	–
323.15 K, x1 = 0.0657	984.41	1.133
323.15 K, x1 = 0.1054	983.17	1.643
323.15 K, x1 = 0.1987	977.79	3.242
323.15 K, x1 = 0.2946	–	4.581
323.15 K, x1 = 0.301	968.97	–
323.15 K, x1 = 0.3834	960.83	–
323.15 K, x1 = 0.388	–	5.886
323.15 K, x1 = 0.5041	949.46	6.458
323.15 K, x1 = 0.6	940.99	6.319
323.15 K, x1 = 0.6974	934.27	–
323.15 K, x1 = 0.7003	–	5.881
323.15 K, x1 = 0.8009	927.12	–
323.15 K, x1 = 0.8019	–	5.229
323.15 K, x1 = 0.898	–	4.725
323.15 K, x1 = 0.9031	921.24	–
323.15 K, x1 = 1	916.48	4.177
333.15 K, x1 = 0.0493	–	0.817
333.15 K, x1 = 0.0499	979.47	–
333.15 K, x1 = 0.0657	978.52	0.9621
333.15 K, x1 = 0.1054	976.55	–
333.15 K, x1 = 0.1987	970.11	2.379
333.15 K, x1 = 0.2946	–	3.261
333.15 K, x1 = 0.301	960.9	–
333.15 K, x1 = 0.3834	952.72	–
333.15 K, x1 = 0.388	–	4.107
333.15 K, x1 = 0.5041	941.41	4.499
333.15 K, x1 = 0.6	932.98	4.429
333.15 K, x1 = 0.6974	926.28	–
333.15 K, x1 = 0.7003	–	4.177
333.15 K, x1 = 0.8009	919.16	–
333.15 K, x1 = 0.8019	–	3.78
333.15 K, x1 = 0.898	–	3.463
333.15 K, x1 = 0.9031	913.22	–
333.15 K, x1 = 1	908.46	3.108
343.15 K, x1 = 0.0493	–	0.6997
343.15 K, x1 = 0.0499	973.37	–
343.15 K, x1 = 0.0657	972.17	0.7903
343.15 K, x1 = 0.1054	969.57	1.023
343.15 K, x1 = 0.1987	962.17	1.747
343.15 K, x1 = 0.2946	–	2.416
343.15 K, x1 = 0.301	952.65	–
343.15 K, x1 = 0.3834	944.43	–
343.15 K, x1 = 0.388	–	2.986
343.15 K, x1 = 0.5041	933.17	3.255
343.15 K, x1 = 0.6	924.8	3.227
343.15 K, x1 = 0.6974	918.16	–
343.15 K, x1 = 0.7003	–	3.075
343.15 K, x1 = 0.8009	911	–
343.15 K, x1 = 0.8019	–	2.827
343.15 K, x1 = 0.898	–	2.618
343.15 K, x1 = 0.9031	905.06	–
343.15 K, x1 = 1	900.3	2.385
